In brackets after ≈: the same amount, converted by molar mass. Like-named read-outs stand apart in the source and are kept apart here.

Assay [1] has as its system intracellular S. aureus NRS384 in THP-1 macrophages. The assay is described as follows: Intracellular killing assay 2 (rifamycin analogs, S. aureus in THP-1 macrophages). In kind it is cell-based, Staphylococcus aureus. The settings on record: Staphylococcus aureus, NRS384, 2 h, read-out: S. aureus Intracellular killing MIC. The protocol:
THP-1 monocytic cell line was grown in media (RMPI+10% FBS+1% Penicillin/Streptomycin), then seeded at a density of 1e5 cells/well in a 96 well plate and differentiated into macrophages for three days prior to infection using 200 nM PMA. An overnight culture of S. aureus NRS384 was grown in RPMI, washed twice with PBS and resuspended at 1e7 cfu/mL in PBS. THP-1 were washed with warm media (RMPI without FBS) to remove the Penicillin/Streptomycin and then infected with the S. aureus suspension at a multiplicity of infection of 10:1 (S. aureus: macrophages). Plates were spun at 300×g for 5 minutes to synchronize adhesion of the bacteria, then incubated at 37° C. for 2 hours. Free-floating bacteria were removed by washing 2× with warm media and remaining extracellular S. aureus were killed by addition of media containing gentamicin (50 ug/mL). […] The compounds were added in media containing 50 µg/mL gentamicin to prevent extracellular growth of S. aureus. After 2 hours, plates were washed 2× with warm RPMI without FBS, and 100 ul of THP-1 lysis buffer (0.1% Triton in PBS) was added to each well. S. aureus survival was enumerated by colony forming units through serial dilution and plating onto TSA.
The intracellular MIC value indicated represents the median value of at least two independent experiments, unless indicated otherwise.

The subject of a further assay is S. aureus NRS384. The assay is described as follows: Broth minimum inhibitory concentration (MIC) assay 2. In kind it is cell-based, Staphylococcus aureus. The following applies: for MIC: Staphylococcus aureus, read-out: S. aureus Broth MIC. How it is done:
To test the potency of rifamycin analogs of the disclosure in vitro, a broth growth inhibition assay was developed. For the assay, S. aureus NRS384 was grown in Tryptic Soy Broth (TSB) overnight, then sub-cultured 1:50 in fresh TSB and grown for an additional two hours. The culture was then pelleted via centrifugation and washed twice in PBS. The culture was then diluted to 1×10^6 cfu/mL in TSB and 100 μL of the suspension was added per well to a 2 mL dilution plate in triplicate. […] The plates were sealed and incubated at 37° C. with shaking for 24 hours, then 150 μL of each sample was added to 96 well microtiter plates and the OD600 nm was read on a Spectramax i3 Minimax 300.
The broth MIC experiments were assessed in at least two independent experiments and the median value is captured below unless indicated otherwise.

The mark [2] stands for this setting: lowest concentration giving intracellular S. aureus below limit of detection (50 cfu/mL) in THP-1 macrophages, median of at least two experiments.
Setting [3] is: S. aureus NRS384 in TSB, 24 hours at 37° C., OD600, median of at least two independent experiments.

Consider `CO[C@H]1/C=C/O[C@@]2(C)Oc3c(C)c(O)c4c(=O)c(c5oc6cc(OCCNCCOCCN7CC7)ccc6nc-5c4c3C2=O)NC(=O)/C(C)=C\C=C\[C@H](C)[C@H](O)[C@@H](C)[C@@H](O)[C@@H](C)[C@H](OC(C)=O)[C@@H]1C` [Analog 16r], for which the MIC in assay [1] was 1 µM (≈ 0.957 µg/mL); in the assay with S. aureus NRS384 (NRS384, 24 h), 0.0156 µM (≈ 0.0149 µg/mL).

In the case of `CO[C@H]1/C=C/O[C@@]2(C)Oc3c(C)c(O)c4c(=O)c(c5oc6cc(OCCOCCN(C)C)ccc6nc-5c4c3C2=O)NC(=O)/C(C)=C\C=C\[C@H](C)[C@H](O)[C@@H](C)[C@@H](O)[C@@H](C)[C@H](OC(C)=O)[C@@H]1C` [Analog 16s], the results for the MIC (in assay [1] (setting [2]); in the assay with S. aureus NRS384 (setting [3])) were 1 µM (≈ 0.916 µg/mL) and 0.0625 µM (≈ 0.0573 µg/mL), respectively.

Turning to `CCN(CC)CCOc1ccc2nc3c4c5c6c(C)c(O)c4c(=O)c(c-3oc2c1)NC(=O)/C(C)=C\C=C\[C@H](C)[C@H](O)[C@@H](C)[C@@H](O)[C@@H](C)[C@H](OC(C)=O)[C@H](C)[C@@H](OC)/C=C/O[C@@](C)(O6)C5=O` [Analog 16t], the MIC came to 1 µM (≈ 0.9 µg/mL) in assay [1] (setting [2]) and 0.0625 µM (≈ 0.0563 µg/mL) with S. aureus NRS384 (setting [3]).

As for `CO[C@H]1/C=C/O[C@@]2(C)Oc3c(C)c(O)c4c(=O)c(c5oc6cc(OCCN(C(C)C)C(C)C)ccc6nc-5c4c3C2=O)NC(=O)/C(C)=C\C=C\[C@H](C)[C@H](O)[C@@H](C)[C@@H](O)[C@@H](C)[C@H](OC(C)=O)[C@@H]1C` [Analog 16u], the MIC (in assay [1] (setting [2]); in the assay with S. aureus NRS384 (setting [3])) was 1 µM (≈ 0.928 µg/mL) each time.

As for `CO[C@H]1/C=C/O[C@@]2(C)Oc3c(C)c(O)c4c(=O)c(c5oc6cc(OCCN(C)c7ccccn7)ccc6nc-5c4c3C2=O)NC(=O)/C(C)=C\C=C\[C@H](C)[C@H](O)[C@@H](C)[C@@H](O)[C@@H](C)[C@H](OC(C)=O)[C@@H]1C` [Analog 16v], the values for the MIC (in assay [1] (setting [2]); in the assay with S. aureus NRS384 (setting [3])) were 1 µM (≈ 0.935 µg/mL) and 0.0625 µM (≈ 0.0584 µg/mL), respectively.

As to `CO[C@H]1/C=C/O[C@@]2(C)Oc3c(C)c(O)c4c(=O)c(c5oc6cc(OCc7ccccc7CN(C)C)ccc6nc-5c4c3C2=O)NC(=O)/C(C)=C\C=C\[C@H](C)[C@H](O)[C@@H](C)[C@@H](O)[C@@H](C)[C@H](OC(C)=O)[C@@H]1C` [Analog 16w], the MIC in assay [1] (setting [2]) was greater than 1 µM; in the assay on S. aureus NRS384 (setting [3]), 0.0625 µM (≈ 0.0593 µg/mL).

In the case of `CO[C@H]1/C=C/O[C@@]2(C)Oc3c(C)c(O)c4c(=O)c(c5oc6cc(OCCNC(C)=O)ccc6nc-5c4c3C2=O)NC(=O)/C(C)=C\C=C\[C@H](C)[C@H](O)[C@@H](C)[C@@H](O)[C@@H](C)[C@H](OC(C)=O)[C@@H]1C` [Analog 16x], the MIC in assay [1] (setting [2]) was greater than 1 µM; with S. aureus NRS384 (setting [3]), 0.000977 µM (≈ 0.000866 µg/mL).

On to `CO[C@H]1/C=C/O[C@@]2(C)Oc3c(C)c(O)c4c(=O)c(c5oc6cc(OCCn7ccnc7)ccc6nc-5c4c3C2=O)NC(=O)/C(C)=C\C=C\[C@H](C)[C@H](O)[C@@H](C)[C@@H](O)[C@@H](C)[C@H](OC(C)=O)[C@@H]1C` [Analog 16y], for which the MIC was greater than 1 µM in assay [1] (setting [2]) and 0.0156 µM (≈ 0.014 µg/mL) in the assay with S. aureus NRS384 (setting [3]).

Take `CO[C@H]1/C=C/O[C@@]2(C)Oc3c(C)c(O)c4c(=O)c(c5oc6cc(OCCN7CCC7)ccc6nc-5c4c3C2=O)NC(=O)/C(C)=C\C=C\[C@H](C)[C@H](O)[C@@H](C)[C@@H](O)[C@@H](C)[C@H](OC(C)=O)[C@@H]1C` [Analog 16z-1]: the MIC in assay [1] (setting [2]) is 1 µM (≈ 0.884 µg/mL); in the assay on S. aureus NRS384 (setting [3]), 0.00391 µM (≈ 0.00346 µg/mL).

As to `CO[C@H]1/C=C/O[C@@]2(C)Oc3c(C)c(O)c4c(=O)c(c5oc6cc(OCCN(C)C(C)=O)ccc6nc-5c4c3C2=O)NC(=O)/C(C)=C\C=C\[C@H](C)[C@H](O)[C@@H](C)[C@@H](O)[C@@H](C)[C@H](OC(C)=O)[C@@H]1C` [Analog 16z], the figures for the MIC (in assay [1] (setting [2]); in the assay with S. aureus NRS384 (setting [3])) were greater than 1 µM and 0.00391 µM (≈ 0.00352 µg/mL), respectively.

`CO[C@H]1/C=C/O[C@@]2(C)Oc3c(C)c(O)c4c(=O)c(c5oc6cc(F)ccc6nc-5c4c3C2=O)NCC(=O)/C(C)=C\C=C\[C@H](C)[C@H](O)[C@@H](C)[C@@H](O)[C@@H](C)[C@H](OC(C)=O)[C@@H]1C` [Analog P3]: in the assay on S. aureus NRS384 (setting [3]), the “S. aureus Broth MIC” value was found to be 0.0156 µM.

For the compound `CO[C@H]1/C=C/O[C@@]2(C)Oc3c(C)c(O)c4c(=O)c(c5oc6cc(N7CCC(N(C)C)CC7)cc(O)c6nc-5c4c3C2=O)NC(=O)/C(C)=C\C=C\[C@H](C)[C@H](O)[C@@H](C)[C@@H](O)[C@@H](C)[C@H](OC(C)=O)[C@@H]1C` [Rifalog, reference compound], the MIC with S. aureus NRS384 (setting [3]) worked out at 0.000977 µM (≈ 0.000906 µg/mL).

The record behind these values is US11666658B2, “Rifamycin analogs and antibody-drug conjugates thereof” (Regeneron Pharmaceuticals, Inc., priority 2018, dated 2023).
